Data: patent publication US20230314454A1, “BLOOD COAGULATION TEST REAGENT, AND BLOOD COAGULATION TEST METHOD” (Thrombo Translational Research Lab Inc., priority 2020, published 2023)

Columns and labels:
[1] = system: thrombin generation in patient plasma; assay: Thrombin generation test (TF/FXIa initiation reagent), apixaban spiked into patient plasma; format: biochemical, human
Experimental: (§1) In test, plasma specimens were prepared by centrifugation of blood that was collected using an anticoagulant citric acid. The plasma specimens were frozen at −80° C. until the test starts, and thawed at 37° C. immediately before the test, and used.
(§2) The thrombin generation initiation reagent was prepared by mixing the following reagents. The thrombin formation initiation reagent was appropriately diluted with 50 mM tris buffer solution containing 0.5% bovine serum albumin (purchased from FUJIFILM Wako Pure Chemical Corporation) and 0.15 M sodium chloride (purchased from FUJIFILM Wako Pure Chemical Corporation) (BSA/TBS, pH 7.4). • Human TF (Dade Innovin, purchased from SYSMEX CORPORATION) solution • Human FXIa (purchased from Funakoshi Co., Ltd.) solution • Synthetic phospholipids (purchased from Haematex) solution • Calcium chloride (purchased from FUJIFILM Wako Pure Chemical Corporation) solution […]
(§3) To quantify the generated thrombin, the thrombin detection reagent containing EDTA, which was a reaction stopping reagent, was then added to the plasma, followed by incubation at 37° C. for 1 minute. Since thrombin hydrolyzed the thrombin fluorogenic substrate to emit fluorescence during the incubation, the fluorescence intensity was measured using a fluorescence plate reader (excitation wavelength: 355 nm, fluorescence wavelength: 460 nm). The measured fluorescence intensity was converted into the thrombin concentration based on a standard curve constructed using a thrombin standard substance (Technothrombin TGA calibrator, purchased from Cosmo Bio Co., Ltd.). The thrombin generation in the plasma was expressed as a relative ratio (%) with respect to the thrombin generation in control plasma (Siemens control plasma N for blood coagulation test, purchased from SYSMEX CORPORATION).
To test inhibitory effect of the DOACs on thrombin generation, Test specimens were prepared by spiking rivaroxaban, apixaban, or edoxaban into plasma, and the thrombin generation in the plasma was assessed. […]

[2] = system: thrombin generation in plasma; assay: Thrombin generation in plasma over time after taking apixaban; format: in vivo, human; conditions: patients #004 and #005, 10 mg apixaban taken
Experimental: as §1
The thrombin generation initiation reagent was prepared by mixing the following reagents. […]
as §3, with “CORPORATION). […]” for “CORPORATION).”

[3] = system: blood coagulant activity (clotting time); assay: Blood coagulation tests APTT and PT-INR in plasma after taking apixaban; format: in vivo, human; conditions: patients #004 and #005, after taking 10 mg apixaban
Experimental: The coagulant activity of each of the test plasma specimen was tested using APTT and PT-INR test methods as blood coagulation tests. In both methods, the coagulant activity was determined by measuring clotting time after adding the coagulation initiation reagent into plasma specimens.

[4] = system: thrombin generation in control plasma; assay: Thrombin generation test (TF/FXIa initiation reagent), DOACs spiked into control plasma; format: biochemical, human; conditions: DOAC added to control plasma at 18.5 ng/mL to 500 ng/mL; FIG. 2
Experimental: as §2
as §3, with “The thrombin generation in the plasma was expressed as a relative ratio (%) with respect to the thrombin generation in control plasma (Siemens control plasma N for blood coagulation test, purchased from SYSMEX CORPORATION).” left out

Compound	effect of apixaban addition on thrombin generation in patient plasma ([1]; apixaban 125, 250 or 500 ng/mL, plasma of patients #001, #002, #003, 150 fM TF, 12.5 pM FXIa)	thrombin generation relative to control plasma ([1]; plasma of patient #003 after adding apixaban (125-500 ng/mL)) [%]	thrombin generation relative to control plasma ([1]; plasma of patients #001 and #002 after adding apixaban (125-500 ng/mL)) [%]	change in thrombin generation after taking apixaban [2]	change in blood coagulant activities measured by APTT and PT-INR [3]	inhibitory effect on thrombin generation compared among the three DOACs [4]
COc1ccc(-n2nc(C(N)=O)c3c2C(=O)N(c2ccc(N4CCCCC4=O)cc2)CC3)cc1 [apixaban]	suppressed thrombin generation in the plasma from the patient in a dose-dependent fashion	25	≤ 5	decreased with increase in apixaban concentrations	no significant alteration	–
O=C(NC[C@H]1CN(c2ccc(N3CCOCC3=O)cc2)C(=O)O1)c1ccc(Cl)s1 [rivaroxaban]	–	–	–	–	–	strongest inhibitory effect
